# Reference: article PMC8300937, “New azolyl-derivatives as multitargeting agents against breast cancer and fungal infections: synthesis, biological evaluation and docking study” (Journal of Enzyme Inhibition and Medicinal Chemistry, 2021)
# Like-named read-outs stand apart in the source and are kept apart here.
# How the values were obtained:
# iNOS = target: iNOS; design: method as in PMID 26481362; settings: cocrystallized ligand of iNOS; cited from earlier work
# hCYP19A1 = target: hCYP19A1; design: method as in PMID 26481362; settings: cocrystallized ligand of hCYP19A1; cited from earlier work
# [1] = Chemical stability in aqueous media at 37 °C (HPLC); assay type: physicochemical
# Procedure: Compounds 2 and 5 contain an ester linkage, therefore their chemical stability was evaluated. Phosphate buffer (pH = 7.4), HCl solution (pH = 2.0), NaOH solution (pH = 9.0) were adopted as media. […] Solutions were kept at 37 °C and monitored for 24 h.
# A 0.01 M hydrochloric acid buffer (pH 2), as a non-enzymatic simulated gastric fluid (SGF), a 0.01 M phosphate buffer (pH 7.4) as non-enzymatic simulated intestinal fluid (SIF), and a 0.1 mM sodium hydroxide solution (pH 10) were used in this study. The reactions were initiated by adding 0.1 ml of compound stock solution (1 mg/mL in DMSO) to 1.9 ml aqueous buffer solution, in screw-capped vials at 37 ± 0.5 °C. Samples (5 µL) were withdrawn at appropriate intervals, i.e. after 5 min, 1 h, 2 h, 3 h, 4 h, 6 h, 8 h, and then after 24 h incubation time and analysed by HPLC.
# Recombinant human iNOS = target: T1, Recombinant human iNOS (Homo sapiens, UniProt P35228); experiment: iNOS inhibition, L-citrulline assay with fluorimetric (HPLC) detection; assay type: biochemical; settings: read-out: iNOS % inhibition
# T1 construct: purchased Enzo Life Sciences, Inc
# Procedure: The injection volume was 5 μL.
# Recombinant human iNOS was purchased from Enzo Life Sciences, Inc. (New York, USA).
# [2] = tested on: C. glabrata clinical isolates; experiment: Antifungal broth microdilution (EUCAST), C. glabrata clinical isolates; assay type: cell-based, Candida glabrata
# Procedure: (§1) The antifungal activity of the most representative compounds was evaluated versus one ATCC 90028 strain and 15 clinical isolates belonging to the most clinically relevant Candida spp. (C. albicans, C. tropicalis, and C. glabrata). All strains were stored at −80 °C in Sabouraud Broth (Oxoid LTD, Basingstoke, Hampshire, England) with 20% of glycerine until their use. The strains were grown on Sabouraud CAF agar (Thermo Fisher Scientific Waltham, MA, USA), and incubated for 24–48 h at 37 °C. […] The in vitro antifungal activity was determined by broth microdilution method with RPMI 1640 (Sigma-Aldrich. ST Louis, MO, USA) as recommended by EUCAST, and the E. Def 7.3, method document (http://www.eucast.org). […] Each plate included the following controls: (i) inoculum suspension (growth control), (ii) drug-free medium, (iii) medium with drug, and (iv) distilled water (used for the inoculum preparation). Fluconazole was used as a reference drug according to the EUCAST guidelines. The plates were incubated for 24 h at 37 °C, and then read with a plate reader at 530 nm. […] Three independent experiments were performed in triplicate.
# [3] = tested on: MCF-7 breast cancer cell line; experiment: Cell metabolic activity (MTT assay); assay type: cell-based; settings: Homo sapiens, MCF7; MCF-7, 24 h exposure; read-out: IC50 cell metabolic activity (MTT)
# Procedure: (§2) Human breast cancer MCF-7 (HTB-22™) cells were purchased from ATCC® and maintained in Dulbecco’s Modified Eagle Medium (DMEM) high glucose supplemented with 10% of foetal bovine serum (FBS) and 1% of penicillin/streptomycin (all from Gibco-Thermofisher Scientific, MD, USA) at 37 °C and 5% CO2.
# Cell metabolic activity of MCF-7 human breast cancer cells was assessed by MTT (3–(4,5-dimethylthiazol-2-yl)-2,5-diphenyltetrazolium bromide) test (Sigma Aldrich, Milan, Italy). Cells were seeded (0.1 × 10^4/well) in a 96-well tissue culture-treated plate (Falcon®, Corning Incorporated, NY, USA) and let them adhere for 24 h. Next, the cell monolayer was incubated in the presence of loading concentrations of compounds 2, 5 and 6 (0–400 µM) diluted in DMSO (final concentration 0.2%) for 24, 48 and 72 h. After the exposure time, cells were incubated with 100 μL/well of MTT (5 mg/mL) 1:10 with fresh growth medium (final concentration 0.5 mg/mL) for 4 h at 37 °C and 5% CO2. Finally, the MTT solution was removed and replaced with 100 µL/well of DMSO. Cells were incubated for an additional 20 min at 37 °C and 5% CO2 and afterward gently swirled for 10 min at room temperature. The optical density was measured at 540 nm by means of a spectrophotometer (Multiskan GO, Thermo Scientific, Monza, Italy). Results were expressed as the percentage of cells in the presence of vehicle (DMSO) set as 100% and each experiment was performed in triplicate (n = 3). Concentration-response curves and IC50 were fitted and calculated with the GraphPad Prism 5.0 (GraphPad Software, San Diego, CA, USA)[27].
# C. albicans ATCC 90028 = experiment: Antifungal broth microdilution (EUCAST), standard strain; assay type: cell-based; settings: Candida albicans, ATCC90028; C. albicans ATCC 90028; 24 h, ≥50% growth inhibition; read-out: MIC
# Procedure: as §1
# aromatase (CYP19A) = target: T2, aromatase (CYP19A) (Homo sapiens, UniProt P11511); experiment: Aromatase inhibition, fluorimetric assay kit (Aromatase-CYP19A Inhibitor Screening kit, BioVision); assay type: biochemical; settings: read-out: Aromatase % inhibition
# T2 construct: purchased BioVision
# T2 sequence (P11511 1-503): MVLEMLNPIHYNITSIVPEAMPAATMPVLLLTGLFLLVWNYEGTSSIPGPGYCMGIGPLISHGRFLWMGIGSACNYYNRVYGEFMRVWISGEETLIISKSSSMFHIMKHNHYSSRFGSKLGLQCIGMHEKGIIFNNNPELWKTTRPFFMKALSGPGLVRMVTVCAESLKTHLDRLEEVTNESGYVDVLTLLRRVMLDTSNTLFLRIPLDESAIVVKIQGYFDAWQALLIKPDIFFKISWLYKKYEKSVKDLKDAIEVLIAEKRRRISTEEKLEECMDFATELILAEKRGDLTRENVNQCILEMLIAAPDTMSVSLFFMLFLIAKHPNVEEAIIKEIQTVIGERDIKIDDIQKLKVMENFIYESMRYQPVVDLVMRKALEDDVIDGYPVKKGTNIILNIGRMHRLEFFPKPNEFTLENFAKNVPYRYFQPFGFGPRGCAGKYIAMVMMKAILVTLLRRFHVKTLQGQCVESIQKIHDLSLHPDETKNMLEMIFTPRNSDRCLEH
# Procedure: The aromatase inhibitory activity of the novel compounds was determined using a commercial fluorimetric kit (Aromatase CYP19A Inhibitor Screening kit, BioVision, Milpitas, CA, USA). The assay utilises a fluorogenic aromatase substrate, that is converted into a highly fluorescent metabolite detected in the visible range (Ex/Em = 488/527 nm), ensuring a high signal-to-background ratio with little interference by autofluorescence.
# [4] = tested on: C. tropicalis clinical isolates; experiment: Antifungal broth microdilution (EUCAST), C. tropicalis clinical isolates; assay type: cell-based, Candida tropicalis
# Procedure: as §1
# [5] = tested on: C. albicans clinical isolates; experiment: Antifungal broth microdilution (EUCAST), C. albicans clinical isolates; assay type: cell-based; settings: Candida albicans
# Procedure: as §1
# MCF-7 cell line = experiment: Cytotoxicity test (lactate dehydrogenase release); assay type: cell-based, human; settings: MCF-7, 24 h, 10 µM (lowest concentration tested); DMSO control set as 1
# Procedure: as §2
# After 24 h, cell supernatants were collected from the MTT plate, centrifuged at 450 × g for 4 min and stored on ice. To quantify the cytotoxicity of loading concentrations of compounds 2, 5 and 6 (0–400 µM), the CytoTox 96® Non-Radioactive Cytotoxicity Assay (Promega Corporation, WI, USA) was performed. The CytoTox 96® Assay quantitatively measures lactate dehydrogenase (LDH), a stable cytosolic enzyme released upon cell lysis. The absorbance signal resulting from the conversion of a tetrazolium salt (iodonitrotetrazolium violet; INT) into a red formazan product was measured at 490 and 690 nm (background) with a spectrophotometer (Multiskan GO, Thermo Scientific, Monza, Italy). The results were normalised on MTT absorbances and expressed as fold increases on the LDH released by cultures in the presence of vehicle (DMSO) set as 1.
# aromatase = settings: at 1 µM; cited from earlier work
smiles,measurement,setting,value
CCSC(=N)N [ethylisothiourea],Ki,iNOS,5 nM
"C[C@]12CCC(=O)C=C1CC[C@@H]1[C@@H]2CC[C@]2(C)C(=O)CC[C@@H]12 [4-androstene-3,17-dione]",Ki,hCYP19A1,20 nM
"O=C(OC(Cc1ccccc1)Cn1ccnc1)c1ccccc1 (stereo not drawn) [Compound 2, 1-benzyl-2-(1H-imidazol-1-yl)ethyl benzoate]",melting point,,68 to 69 °C
same,Chemical stability in acidic medium,"[1]; HCl solution pH = 2.0, 37 °C, monitored for 24 h",stable
same,Chemical stability in neutral medium,"[1]; Phosphate buffer pH = 7.4, 37 °C, monitored for 24 h",stable
same,half-life at 0.05 mg/mL,"[1]; aqueous NaOH solution, NaOH solution pH = 9.0, 37 °C, read-out: half-life of hydrolysis in basic medium",48 min
same,inhibition at 1 µM,Recombinant human iNOS,100 ± 2.6%
same,MIC,[2]; C. glabrata 311/5,>64 µg/mL
same,MIC,[2]; C. glabrata 495/5,>64 µg/mL
same,MIC,"[2]; Nakaseomyces glabratus, C. glabrata 365/5, read-out: MIC",> 64 µg/mL
same,IC50,[3],> 200000 nM
same,MIC,C. albicans ATCC 90028,16 µg/mL
same,inhibition at 1 µM,aromatase (CYP19A),77 ± 1.8%
same,MIC,[4]; C. tropicalis 295/5,64 µg/mL
same,MIC,"[4]; Candida tropicalis, C. tropicalis 74/5, read-out: MIC",64 µg/mL
same,MIC,[5]; C. albicans 78/5,16 µg/mL
same,MIC,[5]; C. albicans 231/5,16 µg/mL
same,MIC,[5]; C. albicans 308/4,64 µg/mL
same,MIC,[5]; C. albicans 510/5,16 µg/mL
same,MIC,[5]; C. albicans 688/5,32 µg/mL
same,MIC,[5]; C. albicans 712/5,32 µg/mL
same,MIC,[5]; C. albicans 887/5,16 µg/mL
same,MIC,[5]; C. albicans 943/5,16 µg/mL
same,MIC,[5]; C. albicans 1009/40,16 µg/mL
same,MIC,[5]; C. albicans SF1,16 µg/mL
same,"LDH released, fold increase vs control",MCF-7 cell line,1.44 folds
O=C(NCc1ccccc1)OC(Cn1ccnc1)c1ccccc1 (stereo not drawn) [Compound 13a],aromatase % inhibition,aromatase,81%
